Twelve molecules from US9242959B2, “(Aza)benzhydryl ether derivatives, their process of preparation and their use as H4-receptor ligands for therapeutical applications” (BIOPROJET, priority 2012, dated 2016) can be followed below.

The term Ki denotes a measure of affinity in units of concentration, obtained from inhibition or displacement. What is called IC50 is the point on the concentration scale where inhibition reaches its midpoint. One may read the melting point as the temperature of the solid-liquid transition.

The target in data set [1] is T1, human H4 receptor (Homo sapiens, UniProt Q9H3N8).
T1 construct: expressed in transfected cells
T1 sequence (Q9H3N8 whole entry): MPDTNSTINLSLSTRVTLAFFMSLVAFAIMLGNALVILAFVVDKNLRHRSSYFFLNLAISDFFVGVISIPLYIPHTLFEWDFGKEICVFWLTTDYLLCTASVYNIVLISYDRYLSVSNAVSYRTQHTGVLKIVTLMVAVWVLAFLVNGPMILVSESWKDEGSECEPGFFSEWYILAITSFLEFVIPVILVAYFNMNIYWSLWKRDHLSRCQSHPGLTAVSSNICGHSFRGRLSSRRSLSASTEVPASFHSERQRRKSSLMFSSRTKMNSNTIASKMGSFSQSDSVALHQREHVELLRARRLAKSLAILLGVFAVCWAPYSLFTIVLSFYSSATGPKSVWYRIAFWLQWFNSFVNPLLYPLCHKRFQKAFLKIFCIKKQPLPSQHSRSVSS
Kind of data set: [3H]Histamine binding assay on membranes of CHO cells stably expressing human H4 receptor. As for the experimental part: CHO cells stably expressing human H4 receptor were grown until sub-confluence and centrifuged at 300 g 15 minutes at 4° C. Pellets were resuspended in buffer I Tris-HCl 50 mM, MgCl2 10 mM, NaCl 140 mM, pH=7.4 supplemented by a 1/50 dilution of a mix of protease inhibitors. The obtained suspension is stirred gently and submitted to a […] exerted through a syringe. The cell lysate is then centrifuged at 300 g 15 minutes at 4° C. in order to eliminate nucleus and cell scraps. The obtained supernatant was then centrifuged at 48000 g for 30 minutes at 4° C. The final pellet is resuspended in buffer I with a potter homogenizer. Aliquots were frozen in liquid nitrogen and stored until use at −80° C. Protein content is measured by the Bradford method.
Defreezed membranes were diluted at a final concentration of 20 μg/180 μL/well in a binding buffer containing 50 mM Tris/HCl, 0.5 mM EDTA, pH=7.4 and distributed in 96 well polystyrene microplate. [^3H] […] Non specific binding was estimated in the presence of 10 μM BP1.2404 (JNJ 7777120). The reaction was terminated by filtration through GF/B filters pre-soaked 2 hours at 4° C. in 1% polyethyleneimine. Filters were rinsed 3 times with 250 μl of ice cold incubation binding buffer.
The filter-bound radioactivity was measured in a liquid scintillation counter Microbeta TRILUX® with 50 μl of scintillation fluid.
The hH4 binding investigated by use of [^3H]

Data set [2] deals with T1, human H4 receptor. Kind of data set: GTPγ[35S] binding assay on membranes of SH-SY5Y cells stably expressing human H4 receptor. The format is biochemical. The procedure: SH-SY5Y cells stably expressing human H4 receptor are grown until sub-confluence and centrifuged at 300 g 15 minutes at 4° C. Pellets are resuspended in buffer I Tris-HCl 50 mM, MgCl2 10 mM, NaCl 140 mM, pH=7.4 supplemented by Leupeptin 10 μg/mL, Phenyl Methyl Sulphonyl Fluoride (PMSF) 0.1 mM, Aprotinin 2 μg/mL and Pepstatin 2 μM (or a 1/50 dilution of a mix of protease inhibitors). The obtained suspension is stirred gently and submitted to a […] exerted through a syringe. The cell lysate is then centrifuged at 300 g 15 minutes at 4° C. in order to eliminate nucleus and cell scraps. The obtained supernatant is then centrifuged at 48000 g for 30 minutes at 4° C. The final pellet is resuspended in buffer I with a potter homogenizer. Aliquots are frozen in liquid nitrogen and stored until use at −80° C. Protein content is measured by the Bradford method.
Defreezed membranes are diluted at a final concentration of 5 μg/180 μL/well in buffer I supplemented by GDP 10 μM and distributed in 96 well polystyrene microplate. GTPγ [^35S] labelled ligand (0.2-0.3 nM) is added for additional 30 minutes. After transfer in a Millipore GF/C HTS® microplate, the filtration of the rectional mix is followed by a three times 250 μl wash to stop the reaction.
The filter-bound radioactivity is measured in a liquid scintillation counter Microbeta TRILUX® with 50 μl of scintillation fluid.
Results are expressed with IC50 and Ki values.
On the technique in general: Binding of GTPγS marks nucleotide exchange on a G protein.

With `CN1CCC(OC(c2ccccn2)c2cc(OC(F)(F)F)ccc2F)CC1.O=C(O)C(=O)O.O=C(O)C(=O)O` (stereo not drawn) [Example 1, 2-[(2-Fluoro-5-trifluoromethoxyphenyl)(1-methylpiperidin-4-yloxy)methyl]pyridine, dioxalate], the melting point worked out at 45 °C. In addition, the inhibitory constant (Ki) in data set [1] was under 0.3 µM. This molecule also came in with an IC50 in data set [2] of under 0.3 µM.

As to `Cc1ccc(C(OC2CCN(C)CC2)c2ccc(Cl)cn2)c(F)c1.O=C(O)C(=O)O` (stereo not drawn) [Example 2, 5-Chloro-2-[(2-fluoro-4-methylphenyl)(1-methylpiperidin-4-yloxy)methyl]pyridine, oxalate], the melting point is 165 °C. The same molecule showed a Ki in data set [1] of under 0.03 µM. Also, the IC50 in data set [2] is under 0.3 µM.

The molecule `CN1CCC(OC(c2ccc(Cl)cn2)c2cc(OC(F)(F)F)ccc2F)CC1.O=C(O)C(=O)O` (stereo not drawn) [Example 4, 5-Chloro-2-[(2-fluoro-5-trifluoromethoxyphenyl)(1-methylpiperidin-4-yloxy)methyl]pyridine, oxalate] gave a melting point of 75 °C. The inhibition constant Ki in data set [1] was under 0.3 µM. Further, in data set [2], the half-inhibitory concentration (IC50) is under 0.3 µM.

`Cc1ccnc(C(OC2CCN(C)CC2)c2ccc(C)cc2F)c1.O=C(O)C(=O)O.O=C(O)C(=O)O` (stereo not drawn) [Example 7, 2-[(2-Fluoro-4-methylphenyl)(1-methylpiperidin-4-yloxy)methyl]-4-methylpyridine, dioxalate] registered a melting point of 52 °C. The same molecule had an inhibitory constant (Ki) in data set [1] of under 0.3 µM. The IC50 in data set [2] is under 0.3 µM.

`Cc1ccc(C(OC2CCN(C)CC2)c2ccc(F)cn2)c(F)c1.O=C(O)C(=O)O` (stereo not drawn) [Example 10, 5-Fluoro-2-[(2-fluoro-4-methylphenyl)(1-methylpiperidin-4-yloxy)methyl]pyridine, oxalate] gave a melting point of 133 °C. The molecule also showed a Ki in data set [1] of under 0.3 µM. Moreover, the IC50 in data set [2] is under 0.3 µM.

`CN1CCC(OC(c2cccc(C#CCCCCN)c2)c2ccc(Cl)cn2)CC1.O=C(O)C(=O)O` (stereo not drawn) [Example 18, 6-{3-[(5-Chloropyridin-2-yl)(1-methylpiperidin-4-yloxy)methyl]phenyl}hex-5-ynylamine, oxalate] came in with a melting point of 136 °C. The molecule also showed a Ki in data set [1] of under 0.03 µM. For the same molecule, the IC50 in data set [2] is under 0.3 µM.

Molecule `CN1CCC(OC(c2ccc3ccccc3c2)c2cc(OC(F)(F)F)ccc2F)CC1.O=C(O)C(=O)O` (stereo not drawn) [Example 28, 4-[(2-Fluoro-5-trifluoromethoxyphenyl)naphthalen-2-ylmethoxy]-1-methylpiperidine, oxalate] gave a melting point of 105 °C. The molecule also yielded a Ki in data set [1] of under 1 µM. Moreover, the half-inhibitory concentration (IC50) in data set [2] is under 0.3 µM.

Turning to `Cc1ccc(C(OC2CCN(C)CC2)c2ccc(Cl)c(Cl)c2)c(F)c1.O=C(O)C(=O)O` (stereo not drawn) [Example 30, 4-[(3,4-Dichlorophenyl)(2-fluoro-4-methylphenyl)methoxy]-1-methylpiperidine, oxalate], the melting point turned out to be 140 °C. The Ki in data set [1] is under 0.3 µM. In data set [2], this molecule registered a concentration for half-maximal inhibition (IC50) of under 0.3 µM.

In the case of `CN1CCC(OC(c2ccc(Cl)c(Cl)c2)c2cc(OC(F)(F)F)ccc2F)CC1.O=C(O)C(=O)O` (stereo not drawn) [Example 31, 4-[(3,4-Dichlorophenyl)(2-fluoro-5-trifluoromethoxyphenyl)methoxy]-1-methylpiperidine, oxalate], the melting point came out at 115 °C. The same molecule came in with a Ki in data set [1] of under 0.3 µM. Moreover, the concentration for half-maximal inhibition (IC50) in data set [2] is under 0.3 µM.

In the case of `CN1CCC(OC(c2ccccc2F)c2cc(OC(F)(F)F)ccc2F)CC1.O=C(O)C(=O)O` (stereo not drawn) [Example 32, 4-[(2-Fluorophenyl)-(2-fluoro-5-trifluoromethoxyphenyl)methoxy]-1-methylpiperidine, oxalate], the melting point was found to be 116 °C. In data set [1], this molecule gave an inhibition constant (Ki) of under 1 µM. The molecule further displayed an IC50 in data set [2] of under 1 µM.

`CN1CCC(OC(c2ccc(Cl)cc2)c2cc(OC(F)(F)F)ccc2F)CC1.O=C(O)C(=O)O` (stereo not drawn) [Example 33, 4-[(4-Chlorophenyl)(2-fluoro-5-trifluoromethoxyphenyl)methoxy]-1-methylpiperidine, oxalate] gave a melting point of 117 °C. Moreover, the Ki in data set [1] was under 0.3 µM. The IC50 in data set [2] is under 0.3 µM.

The molecule `CN1CCC(OC(c2ccc(Cl)cc2)c2cccc(I)c2)CC1.O=C(O)C(=O)O` (stereo not drawn) [Example 35, 4-[(4-Chlorophenyl)(3-iodophenyl)methoxy]-1-methylpiperidine, oxalate] had a melting point of 141 °C. Also, in data set [1], the Ki was under 0.03 µM. In data set [2], this molecule came in with an IC50 of under 0.3 µM.
